Experimental data taken from ChEMBL document CHEMBL3877319, “Synthesis of Ofornine mimics from natural product l-vasicine as anti-hypertensive agents” (Bioorg Med Chem, 2017).

Assays:
Type in all cases: functional
[1] = system: Rattus norvegicus; assay: Anti-hypertensive activity in Wistar rat assessed as systolic blood pressure at 10 mg/kg, iv after 15 mins (reference value: 110 to 124.6 mmHg)
[2] = system: Rattus norvegicus; assay: Anti-hypertensive activity in Wistar rat assessed as diastolic blood pressure at 10 mg/kg, iv after 15 mins (reference value: 77.15 to 94.4 mmHg)
[3] = system: Rattus norvegicus; assay: Anti-hypertensive activity in Wistar rat assessed as systolic blood pressure at 10 mg/kg, iv after 150 mins (reference value: 110 to 124.6 mmHg)
[4] = system: Rattus norvegicus; assay: Anti-hypertensive activity in Wistar rat assessed as systolic blood pressure at 10 mg/kg, iv after 120 mins (reference value: 110 to 124.6 mmHg)
[5] = system: Rattus norvegicus; assay: Anti-hypertensive activity in Wistar rat assessed as systolic blood pressure at 10 mg/kg, iv after 5 mins (reference value: 110 to 124.6 mmHg)
[6] = system: Rattus norvegicus; assay: Anti-hypertensive activity in Wistar rat assessed as diastolic blood pressure at 10 mg/kg, iv after 5 mins (reference value: 77.15 to 94.4 mmHg)
[7] = system: Rattus norvegicus; assay: Anti-hypertensive activity in Wistar rat assessed as systolic blood pressure at 10 mg/kg, iv after 60 mins (reference value: 110 to 124.6 mmHg)
[8] = system: Rattus norvegicus; assay: Anti-hypertensive activity in Wistar rat assessed as diastolic blood pressure at 10 mg/kg, iv after 120 mins (reference value: 77.15 to 94.4 mmHg)
[9] = system: Rattus norvegicus; assay: Anti-hypertensive activity in Wistar rat assessed as systolic blood pressure at 10 mg/kg, iv after 180 mins (reference value: 110 to 124.6 mmHg)
[10] = system: Rattus norvegicus; assay: Anti-hypertensive activity in Wistar rat assessed as diastolic blood pressure at 10 mg/kg, iv after 180 mins (reference value: 77.15 to 94.4 mmHg)
[11] = system: Rattus norvegicus; assay: Anti-hypertensive activity in Wistar rat assessed as diastolic blood pressure at 10 mg/kg, iv after 60 mins (reference value: 77.15 to 94.4 mmHg)
[12] = system: Rattus norvegicus; assay: Anti-hypertensive activity in Wistar rat assessed as diastolic blood pressure at 10 mg/kg, iv after 150 mins (reference value: 77.15 to 94.4 mmHg)
[13] = system: Rattus norvegicus; assay: Anti-hypertensive activity in Wistar rat assessed as diastolic blood pressure at 10 mg/kg, iv after 30 mins (reference value: 77.15 to 94.4 mmHg)
[14] = system: Rattus norvegicus; assay: Anti-hypertensive activity in Wistar rat assessed as systolic blood pressure at 10 mg/kg, iv after 30 mins (reference value: 110 to 124.6 mmHg)

| Compound | Activity [1] | Activity [2] | Activity [3] | Activity [4] | Activity [5] | Activity [6] | Activity [7] | Activity [8] | Activity [9] | Activity [10] | Activity [11] | Activity [12] | Activity [13] | Activity [14] |
| --- | --- | --- | --- | --- | --- | --- | --- | --- | --- | --- | --- | --- | --- | --- |
| O=C(c1ccccc1-n1cc(-c2ccc(-c3ccccc3)cc2)nn1)N1CC[C@@H](O)C1 | 113 mmHg | 82 mmHg | 116.3 mmHg | 107.3 mmHg | 112 mmHg | 82 mmHg | 110.1 mmHg | 87.8 mmHg | 109.6 mmHg | 78.3 mmHg | 86.8 mmHg | 81.3 mmHg | 79.1 mmHg | 106.9 mmHg |
| CCCc1cn([C@@H]2CCN(C(=O)c3ccccc3Nc3ccncc3)C2)nn1 | 86.8 mmHg | 53.4 mmHg | 119.9 mmHg | 118.1 mmHg | 82.7 mmHg | 44.5 mmHg | 114.8 mmHg | 82.7 mmHg | 118.8 mmHg | 84.5 mmHg | 83.7 mmHg | 81.5 mmHg | 78.5 mmHg | 118.8 mmHg |
| O=C(c1ccccc1-n1cc(C2CC2)nn1)N1CC[C@@H](O)C1 | 114.91 mmHg | 90.7 mmHg | 121.7 mmHg | 120.4 mmHg | 113.8 mmHg | 79.6 mmHg | 120 mmHg | 83.3 mmHg | 123.7 mmHg | 86.6 mmHg | 82.75 mmHg | 84.3 mmHg | 84.35 mmHg | 118.1 mmHg |
| O=C(c1ccccc1Nc1ccncc1)N1CC[C@@H](n2cc(-c3ccccc3)nn2)C1 | 94.3 mmHg | 65.5 mmHg | 120.8 mmHg | 116.2 mmHg | 85.3 mmHg | 58.7 mmHg | 109.8 mmHg | 80 mmHg | 121.2 mmHg | 86.75 mmHg | 72.2 mmHg | 80.15 mmHg | 70.2 mmHg | 100.7 mmHg |
| O=C(c1ccccc1Nc1ccncc1)N1CCCCC1 [OFORNINE] | 89.45 mmHg | 61 mmHg | 113.8 mmHg | 90.5 mmHg | 83.3 mmHg | 53.3 mmHg | 88.6 mmHg | 64.5 mmHg | 117 mmHg | 90.8 mmHg | 64.05 mmHg | 77.9 mmHg | 62.8 mmHg | 89.5 mmHg |
| [N-]=[N+]=N[C@@H]1CCN(C(=O)c2ccccc2Nc2ccncc2)C1 | 97 mmHg | 67.75 mmHg | – | 115.6 mmHg | 86.15 mmHg | 59.8 mmHg | 111.6 mmHg | 80.3 mmHg | 115.3 mmHg | – | 81.4 mmHg | 77.3 mmHg | 79.7 mmHg | 108.4 mmHg |
| CCCCCc1ccc(-c2cn([C@@H]3CCN(C(=O)c4ccccc4Nc4ccncc4)C3)nn2)cc1 | 97 mmHg | 67.75 mmHg | – | 115.6 mmHg | 86.15 mmHg | 59.8 mmHg | 111.6 mmHg | 80.3 mmHg | 115.3 mmHg | – | 81.4 mmHg | 77.3 mmHg | 79.7 mmHg | 108.4 mmHg |
